Experiment [1] deals with full length SMN2 minigene mRNA (HEK293H cells stably transfected with SMN2-A minigene). Briefly: SMN2 minigene mRNA splicing RT-qPCR assay in cultured cells. It is filed as cell-based. The settings on record: Homo sapiens, HEK293-H, 24 hours, 7-point concentration curve, 1.5-fold increase relative to vehicle, read-out: EC1.5x minigene (EC1.5x concentration for production of full length SMN2 minigene mRNA). For orientation: Real-time PCR tracks product formation cycle by cycle.

The test system of experiment [2] is SMN protein in SMA patient fibroblast cells (GM03813). Briefly: SMN protein assay in cultured cells (SMN HTRF). Type of experiment: cell-based. To be noted: Homo sapiens, SMA Type 1 patient fibroblasts, 48 hours; for EC (1.5-fold): 7-point concentration curve, 1.5 times SMN protein vs vehicle, read-out: EC1.5x SMN protein (EC1.5x concentration for SMN protein expression); for maximal fold induction: fold increase relative to vehicle control, read-out: max. fold increase of SMN protein. Summed up: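 SMA patient fibroblasts (5,000/well, DMEM-10% FBS) treated 48 h at 37° C with 7-point, 3.16-fold dilution series, in triplicate; lysates read by anti-SMN HTRF (665/620 nm ratio). Fold SMN over vehicle derived from blank-corrected ΔF; EC1.5x is the concentration giving 1.5-fold SMN versus vehicle.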
On the technique in general: TR-FRET usually uses a lanthanide donor and a delayed reading to cut background.

On to `Cc1cn2nc(-c3cc(=O)n4cc(N5CCNC6(CC6)C5)cc(C)c4n3)ccc2n1` [Example 37, 7-(4,7-diazaspiro[2.5]octan-7-yl)-9-methyl-2-(2-methylimidazo[1,2-b]pyridazin-6-yl)pyrido[1,2-a]pyrimidin-4-one], for which the EC (1.5-fold) in experiment [1] worked out at 0.0044 µM. Also, in experiment [2], the EC (1.5-fold) worked out at 0.045 µM and the maximal fold induction is 1.87.

Regarding `Cc1cn2nc(-c3cc(=O)n4cc(N5C[C@H](C)N[C@@H](C)C5)cc(C)c4n3)ccc2n1` [Example 38, 7-[(3S,5S)-3,5-dimethylpiperazin-1-yl]-9-methyl-2-(2-methylimidazo[1,2-b]pyridazin-6-yl)pyrido[1,2-a]pyrimidin-4-one], in experiment [1], the EC (1.5-fold) turned out to be 0.0003 µM. In experiment [2], the EC (1.5-fold) stood at 0.0031 µM and the maximal fold induction stood at 1.85.

Take `CC[C@@H]1CN(c2ccc3nc(-c4ccc5nc(C)cn5n4)cc(=O)n3c2)CCN1` [Example 39, 7-[(3R)-3-ethylpiperazin-1-yl]-2-(2-methylimidazo[1,2-b]pyridazin-6-yl)pyrido[1,2-a]pyrimidin-4-one]: the EC (1.5-fold) in experiment [1] was 0.0009 µM. Further, in experiment [2], the EC (1.5-fold) amounted to 0.0158 µM and the maximal fold induction turned out to be 1.81.

For the origin of these results see patent US11827646B2, “Compounds for treating spinal muscular atrophy” (Hoffmann-La Roche Inc., priority 2014, dated 2023).
